In patent US6303761A, “Triaminepentaacetic acid compound and paramagnetic metal complex prepared from using the compound as ligand” (Department of Health The Executive Yuan, Republic of China, priority 1999, dated 2001):
Where two headings read alike, the source gives them in different places.

What was measured:
[1] = Selectivity constant of the ligand for Gd^3+ over Cu^2+; type: physicochemical
[2] = type: physicochemical; conditions: pH 7.4, plasma concentrations of Ca^2+, Cu^2+ and Zn^2+
[3] = Species distribution of the ligands at various pH values (SPE, SPEPLOT); type: physicochemical; conditions: 7.0×10^-3 mol dm^-3 system
Excerpt: The average difference between observed and calculated -log[H^+ ] was <0.04 throughout all titrations.
When pH=7.0, the concentration of [H2 L]^3- is the maximum (97.5%). In the pH 3-5 range, the dominant species is the third protonated species [H3 L]^2-. When pH=3.7, the concentration of [H3 L]^2- is the maximum (87.75%). […] When pH=9.8, the concentration of [HL]^4- is the maximum (77.5%). In the pH 2-3 range, the dominant species is the fourth protonated species [H4 L]^-. When pH=2.3, the concentration of [H4 L]^- is the maximum (60.9%). In the pH range greater than 11, the dominant species is the deprotonated species [L]^5-.
When pH=2.7, the concentration of [H4 L]^- is the maximum (55.9%). In the pH 3.5-7 range, the dominant species is the third protonated species [H3 L]^2-. When pH=5, the concentration of [H3 L]^2- is the maximum (97.7%). In the pH 7-9 range, the dominant species is the second protonated species [H2 L]^3-. When pH=8.1, the concentration of [H2 L]^3- is the maximum (86.5%). […] When pH=9.9, the concentration of [HL]^4- is the maximum (71.6%). In the pH range greater than 12, the dominant species is the deprotonated species [L]^5-. In the pH range less than 2, the dominant species is the totally protonated species [H5 L].
When pH=2.8, the concentration of [H4 L]^- is the maximum (45.9%). In the pH 3.5-7.5 range, the dominant species is the third protonated species [H3 L]^2-. When pH=5.2, the concentration of [H3 L]^2- is the maximum (99.0%). In the pH 8-9.5 range, the dominant species is the second protonated species [H2 L]^3-. When pH=8.6, the concentration of [H2 L]^3- is the maximum (78.8%). In the pH 9.5-11 range, the dominant species is the first protonated species [HL]^4-. When pH=10.1, the concentration of [HL]^4- is the maximum (67.2%). In the pH range greater than 12, the dominant species is the deprotonated species [L]^5-. In the pH range less than 2, the dominant species is the totally protonated species [H5 L].

pM value, Ca^2+ = conditions: pH 7.4, TL 1.1×10^-5, TM 1.0×10^-6 mol dm^-3
pM value, Cu^2+ = conditions: pH 7.4, TL 1.1×10^-5, TM 1.0×10^-6 mol dm^-3
[4] = Thermodynamic and conditional stability constants of the Zn^2+ complexes (potentiometric titration, program BEST); type: physicochemical; conditions: 25.0 ± 0.1° C., aqueous Me4 NNO3, I = 0.10 mol dm^-3
Method: (§1) The pH electrode was calibrated using two standard buffer solutions with pH 7.0±0.05 and pH 4.0±0.05 respectively. The ionic strength was 0.10 mol dm^-3 Me4 NNO3 ((CH3)4 NNO3). […] The titrant used was 0.1 mol dm^-3 NaOH with a titration amount of 0.005 ml/time.
(§2) (1) Direct Potentiometric Titration: The metal ion and ligand is mixed in 1:1 molar ratio.
(§3) (2) Ligand-ligand Competition Titration: The metal ion, ligand, and EDTA is mixed in 1:1:1 molar ratio.
(§4) M: metal ion, L: organic ligand, ML: metal complex The conditional stability constant is defined by equation (2): [formula]
(§5) The relationship between the conditional stability constant and the thermodynamic stability constant is defined by equation (3): [formula]
(§6) K2^H [H^+ ]^2 + . . . }^-1 =KthermαH

[5] = Selectivity constant of the ligand for Gd^3+ over Zn^2+; type: physicochemical
pM value, Gd^3+ = conditions: pH 7.4, TL 1.1×10^-5, TM 1.0×10^-6 mol dm^-3
[6] = Protonation constants of the organic ligands (potentiometric titration, program PKAS); type: physicochemical; conditions: for pKa: aqueous me4nno3, 25.0 ± 0.1° C., aqueous Me4 NNO3, I = 0.10 mol dm^-3
Method: The ionic strength was 0.10 mol dm^-3 Me4 NNO3 ((CH3)4 NNO3). […] The titrant used was 0.1 mol dm^-3 NaOH with a titration amount of 0.005 ml/time.

[7] = Thermodynamic and conditional stability constants of the Cu^2+ complexes (potentiometric titration, program BEST); type: physicochemical; conditions: 25.0 ± 0.1° C., aqueous Me4 NNO3, I = 0.10 mol dm^-3
Method: as §1, §2, §3, §4, §5, §6

[8] = Thermodynamic and conditional stability constants of the Ca^2+ complexes (potentiometric titration, program BEST); type: physicochemical; conditions: 25.0 ± 0.1° C., aqueous Me4 NNO3, I = 0.10 mol dm^-3
Method: as §1, §2, §3, §4, §5, §6

[9] = Selectivity constant of the ligand for Gd^3+ over Ca^2+; type: physicochemical
pM value, Zn^2+ = conditions: pH 7.4, TL 1.1×10^-5, TM 1.0×10^-6 mol dm^-3

Q: With O=C(O)CN(CCCN(CC(=O)O)CC(=O)O)CCN(CC(=O)O)CC(=O)O [TTDA, 3,6,10-tri(carboxymethyl)-3,6,10-triazadodecanedioic acid] as the molecule, how does the “selectivity constant log K(Gd/Cu)” value [1] read?
A: 3.46

Q: What about the “modified selectivity constant log K sel'” value [2] of the same molecule?
A: 8.44

Q: And the “maximum concentration of first protonated species [HL]^4-” value [3]?
A: 77.5%

Q: What about the “maximum concentration of fourth protonated species [H4 L]^-” value [3] of the same molecule?
A: 60.9%

Q: What about the “maximum concentration of second protonated species [H2 L]^3-” value [3] of the same molecule?
A: 97.5%

Q: What about the “maximum concentration of third protonated species [H3 L]^2-” value [3] of the same molecule?
A: 87.75%

Q: And the “pH of maximum concentration of [H2 L]^3-” value [3]?
A: 7.0 pH

Q: And the “pH of maximum concentration of [H3 L]^2-” value [3]?
A: 3.7 pH

Q: And the “pH of maximum concentration of [H4 L]^-” value [3]?
A: 2.3 pH

Q: What about the “pH of maximum concentration of [HL]^4-” value [3] of the same molecule?
A: 9.8 pH

Q: And the “pH range in which [H2 L]^3- is dominant” value [3]?
A: 5-9 pH

Q: And the “pH range in which [H3 L]^2- is dominant” value [3]?
A: 3-5 pH

Q: What about the “pH range in which [H4 L]^- is dominant” value [3] of the same molecule?
A: 2-3 pH

Q: And the “pH range in which [HL]^4- is dominant” value [3]?
A: 9-10.5 pH

Q: And the “pH range in which deprotonated species [L]^5- is dominant” value [3]?
A: greater than 11 pH

Q: What about the “pM (Ca^2+)” value (pM value, Ca^2+) of the same molecule?
A: 9.73

Q: And the “pM (Cu^2+)” value (pM value, Cu^2+)?
A: 13.58

Q: What about the “log K [ZnHL]/[ZnL][H]” value [4] of the same molecule?
A: 7.41

Q: And the “selectivity constant log K(Gd/Zn)” value [5]?
A: 4.18

Q: What about the “pM (Gd^3+)” value (pM value, Gd^3+) of the same molecule?
A: 17.03

Q: And the “basicity, Σ PKa” value [6]?
A: 27.44

Q: And the pKa ([6]; read-out: first protonation constant log K1^H, [HL]/[L][H])?
A: 10.6

Q: And the pKa ([6]; read-out: fourth protonation constant log K4^H, [H4 L]/[H3 L][H])?
A: 2.8

Q: What about the pKa ([6]; read-out: second protonation constant log K2^H, [H2 L]/[HL][H]) of the same molecule?
A: 8.92

Q: What about the pKa ([6]; read-out: third protonation constant log K3^H, [H3 L]/[H2 L][H]) of the same molecule?
A: 5.12

Q: And the “log K [CuHL]/[CuL][H]” value [7]?
A: 5.52

Q: What about the “log K [CuL]/[Cu][L]” value [7] of the same molecule?
A: 19.31

Q: And the “log K [CaHL]/[CaL][H]” value [8]?
A: 6.06

Q: And the “selectivity constant log K(Gd/Ca)” value [9]?
A: 8.32

Q: And the “log K [GdL]/[Gd][L]” value (25.0 ± 0.1° C., aqueous Me4 NNO3, I = 0.10 mol dm^-3)?
A: 22.77

Q: And the “conditional stability constant log KGdL'” value (pH 7.4)?
A: 18.04

Q: What about the “pM (Zn^2+)” value (pM value, Zn^2+) of the same molecule?
A: 13.22
